Data set [1] in a line: Cytotoxicity assay in macrophage RAW 264.7 (resazurin). In kind it is cell-based. To be noted: mouse, RAW 264.7 macrophages, pH 7.2; RAW 264.7 cells, 200 to 1.56 μM, 48 h treatment, resazurin. The method, then:
(§1) RAW 264.7 cells were cultured in Roswell Park Memorial Institute (RPMI) medium, pH 7.2, supplemented with 10% (v/v) heat-inactivated fetal bovine serum (FBS) (Gibco), 100 μg mL^–1 penicillin (Sigma), 2 g L^–1 sodium bicarbonate, 2 mM L-glutamine, and 25 mM HEPES, and maintained at 37 °C in a humidified incubator with 5% CO2 atmosphere.[27] The cells were then seeded into sterile 96-well plates at a density of 5 × 10^4 cells/well, followed by the addition of the compounds at a concentration of 10 μM for screening, and in a range of 200 μM to 1.56 μM for the determination of the 50% cytotoxic concentration (CC50). Controls included 1% DMSO and amphotericin B at 3.125 μg mL^–1, with 48 h of treatment. Cell viability was assessed using 1 mM resazurin, with subsequent readings performed on a Spectramax spectrophotometer at wavelengths of 570 and 600 nm.
(In general: Alamar Blue is a resazurin reagent that responds to reducing activity.)

In data set [2] the test system is Vero cells. As to the kind of experiment: Cytotoxicity assay in Vero cells (MTT). The data set is classed as cell-based, African green monkey (Cercopithecus aethiops). How it is done: (§2) The Vero cell (ATCC, CCL-81) was cultured in Dulbecco’s modified Eagle medium (DMEM), pH 7.3, supplemented with 10% FBS (v/v) and a penicillin/streptomycin solution (0.1 mg mL^–1/100 U mL^–1). The cells were incubated at 37 °C in a humidified atmosphere with 5% CO2. The MTT reduction assay (3-(4,5-dimethylthiazol-2-yl)-2,5-diphenyltetrazolium bromide) was adapted from Mosmann[43] to evaluate cytotoxicity. For this assay, 1 × 10^4 cells per well were seeded in 96-well plates and incubated overnight until reaching approximately 80% confluence. Wells were treated with different compound concentrations (500 to 7.8 μM) in triplicate. The culture medium was replaced with 0.5 mg mL^–1 MTT solution, and the plate was incubated for 3 h. The resulting formazan crystals were solubilized in DMSO, and absorbance was measured using a Spectramax spectrophotometer at a wavelength of 540 nm to assess cell viability.

Data set [3] in a line: Cytotoxicity assay in Vero cells (MTT). To be noted: African green monkey, Vero cells (ATCC CCL-81), pH 7.3, MTT, 1 × 10^4 cells per well, 500 to 7.8 μM. In kind it is cell-based, African green monkey (Cercopithecus aethiops). How it is done: as §2
Another data set concerns RAW 264.7 macrophages. As to the kind of experiment: Cytotoxicity assay in macrophage RAW 264.7 (resazurin). The data set is classed as cell-based. To be noted: RAW 264.7 cells, highest concentration (200 μM), 48 h. How it is done:
as §1

The subject of data set [4] is L. braziliensis MHOM/BR/75/M2904. The data set is described as follows: In vitro infection of RAW 264.7 macrophages by L. braziliensis-GFP (leishmanicidal screening). To be noted: Leishmania braziliensis; for viability at 10 µM: RAW264.7, 48 h, read-out: parasite viability; for IC50: RAW264.7, suggested from the 10 μM screening, L. braziliensis in RAW 264.7 macrophages, 48 h. In kind it is cell-based. How it is done: L. braziliensis MHOM/BR/75/M2904 was cultured in Grace’s insect medium (pH 6.5) supplemented with 10% (v/v) heat-inactivated fetal bovine serum (FBS) (Gibco), 100 μg mL^–1 penicillin (Sigma), and 2 mM L-glutamine, maintained at 25 °C in a B.O.D. incubator. Using the stationary phase culture on the seventh day, 2.0 × 10^6Leishmania/well were transferred to a 96-well plate containing 1.0 × 10^5 preadhered macrophages/well, following an adapted infection protocol.[44] After applying the compounds at a concentration of 10 μM, 1% DMSO and amphotericin B (3.125 μg mL^–1) were used as controls. Treatments were conducted for 48 h, followed by macrophage lysis using 0.1% SDS solution, which was subsequently neutralized with complete Grace’s medium. To recover promastigote forms, the plate was incubated for 5 days. Fluorescence was measured using a Spectramax fluorometer, with excitation at 490 nm and emission at 520 nm.

Data set [5] concerns Vero cells. Also noted: method as in earlier work. Conditions: 15 μg mL^–1 (equivalent to 16.23 μM), neutral red cytotoxicity assay; cited from earlier work.
The subject of data set [6] is murine peritoneal macrophages. More on the design: method as in PMID 36375398. To be noted: cited from earlier work.
The test system of another data set is human monocyte cell line. Also noted: method as in PMID 32272211. Conditions: 48 h treatment, cited from earlier work.
Data set [7] has as its system Vero cells. Also noted: method as in PMID 29877104. To be noted: 5 × 10^4 cells per well, cited from earlier work.
The test system of a further data set is L. amazonensis. More on the design: method as in PMID 32272211. To be noted: L. amazonensis amastigote stage, 48 h treatment, cited from earlier work.
Setting [8] is: all tested concentrations (500 to 7.8 μM).
Setting [9] is: high concentrations (500 and 250 μM).
The mark [10] stands for this setting: converted from μg mL^–1, read-out: CC50 (equivalent).

Read-outs that look alike come from different tables or passages of the source.

The source of these data is publication PMC12059944, “Synthesis and Antileishmanial Evaluation of N-Phenyl-2-phenoxyacetamides Derived from Carvacrol” (ACS Omega, 2025).

In data set [1], `Cc1ccc(C(C)C)cc1OCC(=O)Nc1ccccc1` [Compound 10, 2-(5-Isopropyl-2-methylphenoxy)-N-phenylacetamide] displayed a CC50 at 48 h of over 200 µM. The survival rate result with Vero cells [2] (setting [8]) was “above 50%”.
For `Cc1ccc(C(C)C)cc1OCC(=O)Nc1cccc(Cl)c1` [Compound 2, N-(3-Chlorophenyl)-2-(5-isopropyl-2-methylphenoxy)acetamide] the same measures were over 200 µM and “above 50%”.
The like results for `Cc1ccc(C(C)C)cc1OCC(=O)Nc1ccc(F)cc1` [Compound 9, N-(4-Fluorophenyl)-2-(5-isopropyl-2-methylphenoxy)acetamide] were, in that order, over 200 µM and “above 50%”.
Turning to `Cc1ccc(C(C)C)cc1OCC(=O)Nc1ccccc1Br` [Compound 4, N-(2-Bromophenyl)-2-(5-isopropyl-2-methylphenoxy)acetamide], the CC50 at 48 h in data set [1] is over 200 µM. The CC50 in [3] was 372 µM. In addition, the survival rate result with Vero cells [2] (setting [9]) is “below 50%”.
What is called viability is the share of living cells, or the viability signal relative to a control. One may read the IC50 as the concentration needed to halve the response being measured. `Cc1ccc(C(C)C)cc1OCC(=O)Nc1ccccc1F` [Compound 7, N-(2-Fluorophenyl)-2-(5-isopropyl-2-methylphenoxy)acetamide] returned a CC50 at 48 h in [1] of over 200 µM. Besides, in the data set with RAW 264.7 macrophages, the “cell viability at the highest concentration compared to the control” value (“cell viability … compared to the control” below) is listed as “no significant differences”. The survival rate result with Vero cells [2] (setting [8]) is recorded as “above 50%”. Also, in data set [4], the viability at 10 µM was about 50% and the IC50 was about 10 µM.
`Cc1ccc(C(C)C)cc1OCC(=O)Nc1ccc(Cl)cc1` [Compound 3, N-(4-Chlorophenyl)-2-(5-isopropyl-2-methylphenoxy)acetamide]: in data set [1], the CC50 at 48 h is over 200 µM. Also, the CC50 in data set [3] was determined as 449 µM. Besides, in the data set with Vero cells [2] (setting [9]), the survival rate entry is “below 50%”.
As for `Cc1ccc(C(C)C)cc1OCC(=O)Nc1ccccc1Cl` [Compound 1, N-(2-Chlorophenyl)-2-(5-isopropyl-2-methylphenoxy)acetamide], the CC50 at 48 h in [1] is over 200 µM. Also, in the data set on RAW 264.7 macrophages, the “cell viability … compared to the control” value is recorded as “no significant differences”. Also, the CC50 in [3] came to 200 µM. The survival rate result in the data set with Vero cells [2] (setting [9]) is reported as “below 50%”.
For the compound `C[C@@H]1[C@H](O)[C@@H](C)/C=C/C=C/C=C/C=C/C=C/C=C/C=C/[C@H](O[C@@H]2O[C@H](C)[C@@H](O)[C@H](N)[C@@H]2O)C[C@@H]2O[C@](O)(C[C@@H](O)C[C@@H](O)[C@H](O)CC[C@@H](O)C[C@@H](O)CC(=O)O[C@H]1C)C[C@H](O)[C@H]2C(=O)O` [amphotericin B], the toxicity result with Vero cells [5] is “over 70%”.
In data set [1], `Cc1ccc(C(C)C)cc1OCC(=O)Nc1cccc(F)c1` [Compound 8, N-(3-Fluorophenyl)-2-(5-isopropyl-2-methylphenoxy)acetamide] registered a CC50 at 48 h of over 200 µM. In data set [3], this compound had a CC50 of 337 µM. Also, the survival rate result with Vero cells [2] (setting [9]) is reported as “below 50%”.
Consider `Cc1ccc(C(C)C)cc1OCC(=O)Nc1ccc(Br)cc1` [Compound 6, N-(4-Bromophenyl)-2-(5-isopropyl-2-methylphenoxy)acetamide], for which the CC50 at 48 h in data set [1] is over 200 µM. Further, the “cell viability … compared to the control” value in the data set on RAW 264.7 macrophages is given as “no significant differences”. This compound also registered a CC50 in data set [3] of 182 µM. Besides, the survival rate entry in the data set on Vero cells [2] (setting [9]) is listed as “below 50%”.
The compound `Cc1ccc(C(C)C)cc1OCC(=O)Nc1cccc(Br)c1` [Compound 5, N-(3-Bromophenyl)-2-(5-isopropyl-2-methylphenoxy)acetamide] showed a CC50 at 48 h in data set [1] of over 200 µM. In addition, in the data set with RAW 264.7 macrophages, the “cell viability … compared to the control” value is listed as “no significant differences”. In the data set on Vero cells [2] (setting [8]), the survival rate result was “above 50%”. Also, in data set [4], the viability at 10 µM was about 50% and the concentration for half-maximal inhibition (IC50) was about 10 µM.
Regarding `Cc1ccc(C(C)C)cc1O` [carvacrol], the CC50 was 505 µM in data set [6] (24 h treatment, converted from μg mL^–1, read-out: CC50 (equivalent)); 75.91 μg mL^–1 in [6] (24 h treatment); 268 µM in data set [6] (72 h treatment, converted from μg mL^–1, read-out: CC50 (equivalent)); 40.23 μg mL^–1 in data set [6] (72 h treatment); 427 µM with human monocyte cell line (setting [10]); 64.10 μg mL^–1 in the data set with human monocyte cell line. For the same compound, the CC50 in the data set with Vero cells [7] (setting [10]) was 572 µM; in the data set on Vero cells [7] it was 86 ± 1.41 μg mL^–1. The IC50 in the data set on L. amazonensis (converted from μg mL^–1, read-out: IC50 (equivalent)) was about 182 µM; in the data set on L. amazonensis it was “approximately 27.40 μg mL^–1”.
